# Patent publication US20250304567A1, “PYRROLIDIONE DERIVATIVES AS INHIBITORS OF NF KAPPA B INDUCING KINASE” (priority 2022, published 2025)
# Like-named read-outs stand apart in the source and are kept apart here.
# Assays:
# [1] = target: Recombinant Human NF-kappaB-Inducing Kinase (NIK/MAP3K14) (Homo sapiens, UniProt Q99558); assay: Inhibition of auto-phosphorylation of recombinant human NIK/MAP3K14 activity (AlphaScreen); type: biochemical; details: 5 μM ATP, 1 nM NIK, average if tested more than once
# How it was run: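 GST-tagged NIK (1 nM) auto-phosphorylation with 5 μM ATP, 2 h at 25 °C, pH 7.5 Tris buffer, 0.7% DMSO; stopped with anti-phospho-IKK Ser176/180 antibody and read by AlphaScreen. Signal normalized to full-activity and no-enzyme/no-ATP controls; IC50 from sigmoidal fit of % inhibition vs log concentration.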
# [2] = test system: p-IKKa levels in L363 (NIK translocated multiple myeloma) cells; assay: Effect of compounds on p-IKKa levels in L363 (NIK translocated multiple myeloma) cells (AlphaLISA SureFire Ultra p-IKKa Ser176/180); type: cell-based, human; details: average if tested more than once, read-out: Assay 2 IC50
# How it was run: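 L363 multiple myeloma cells, BAFF-stimulated overnight (250 ng/ml), then 6 h at 37 °C with compound (11-point 1:3 series, 0.3% DMSO) plus BAFF and 10 μM MG132. p-IKKa Ser176/180 read by AlphaLISA SureFire Ultra; IC50 from sigmoidal fit normalised to stimulated and unstimulated controls.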
# [3] = Homo sapiens, L-363, p-IKKa levels in L363 cells
# Chain of Recombinant Human NF-kappaB-Inducing Kinase (NIK/MAP3K14) (Q99558 whole entry): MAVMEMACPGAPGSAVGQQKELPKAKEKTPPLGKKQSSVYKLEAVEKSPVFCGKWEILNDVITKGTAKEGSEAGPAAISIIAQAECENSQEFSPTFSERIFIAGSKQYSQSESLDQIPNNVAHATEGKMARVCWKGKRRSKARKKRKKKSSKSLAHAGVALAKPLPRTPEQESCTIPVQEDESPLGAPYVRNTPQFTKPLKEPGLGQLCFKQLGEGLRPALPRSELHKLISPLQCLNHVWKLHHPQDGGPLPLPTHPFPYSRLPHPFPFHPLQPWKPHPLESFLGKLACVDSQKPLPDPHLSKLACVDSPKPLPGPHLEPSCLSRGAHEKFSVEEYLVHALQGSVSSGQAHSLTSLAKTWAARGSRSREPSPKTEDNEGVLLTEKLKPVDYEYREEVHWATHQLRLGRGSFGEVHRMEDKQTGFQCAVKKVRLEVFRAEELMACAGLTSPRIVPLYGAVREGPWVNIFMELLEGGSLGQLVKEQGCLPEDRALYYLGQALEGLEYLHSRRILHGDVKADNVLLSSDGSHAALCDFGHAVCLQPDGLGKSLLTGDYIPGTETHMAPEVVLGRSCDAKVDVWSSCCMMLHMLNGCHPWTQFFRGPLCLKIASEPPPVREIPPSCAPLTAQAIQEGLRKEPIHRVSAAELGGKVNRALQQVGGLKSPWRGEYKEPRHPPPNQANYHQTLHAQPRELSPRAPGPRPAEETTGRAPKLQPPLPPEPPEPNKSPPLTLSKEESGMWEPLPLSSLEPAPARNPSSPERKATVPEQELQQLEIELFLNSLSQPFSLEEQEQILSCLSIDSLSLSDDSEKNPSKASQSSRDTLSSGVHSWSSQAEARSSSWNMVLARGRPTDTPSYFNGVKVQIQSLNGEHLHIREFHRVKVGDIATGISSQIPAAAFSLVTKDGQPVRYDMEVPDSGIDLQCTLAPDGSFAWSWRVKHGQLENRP
Molecule,IC50 [1],"IC50 [2, 3]",IC50 ([2]; p-IKKa levels in L363 cells)
"CNC(=O)c1cc(Nc2nccc(-c3csc(-c4cccc([C@]5(O)CCN(C)C5=O)c4)n3)n2)n(C2CCCC2)n1 [Example 15, (R)-1-Cyclopentyl-5-((4-(2-(3-(3-hydroxy-1-methyl-2-oxopyrrolidin-3-yl)phenyl)thiazol-4-yl)pyrimidin-2-yl)amino)-N-methyl-1H-pyrazole-3-carboxamide]",< 0.1 µM,0.1 to 0.5 µM,–
"CN1CC[C@@](O)(c2cccc(-c3nc(-c4ccnc(Nc5cnn(CC6CCCO6)c5)n4)cs3)c2)C1=O (stereo partly drawn) [Example 72, (R)-3-hydroxy-1-methyl-3-(3-(4-(2-((1-(((R,S)-tetrahydrofuran-2-yl)methyl)-1H-pyrazol-4-yl)amino)pyrimidin-4-yl)thiazol-2-yl)phenyl)pyrrolidin-2-one]",< 0.1 µM,0.1 to 0.5 µM,–
"CN1CC[C@@](O)(c2cccc(-c3csc(-c4ccnc(Nc5ccnn5C)n4)n3)c2)C1=O [Example 5, (R)-3-hydroxy-1-methyl-3-(3-(2-(2-((1-methyl-1H-pyrazol-5-yl)amino)pyrimidin-4-yl)thiazol-4-yl)phenyl)pyrrolidin-2-one]",< 0.1 µM,< 0.1 µM,–
"CN1CC[C@@](O)(c2ccnc(-c3csc(-c4ccnc(Nc5ccnn5C)n4)n3)c2)C1=O (single isomer, unassigned) [Example 144, (R)-3-hydroxy-1-methyl-3-(2-(2-(2-((1-methyl-1H-pyrazol-5-yl)amino)pyrimidin-4-yl)thiazol-4-yl)pyridin-4-yl)pyrrolidin-2-one or (S)-3-hydroxy-1-methyl-3-(2-(2-(2-((1-methyl-1H-pyrazol-5-yl)amino)pyrimidin-4-yl)thiazol-4-yl)pyridin-4-yl)pyrrolidin-2-one]",< 0.1 µM,0.1 to 0.5 µM,–
"C[C@H](Nc1nccc(-c2nc(-c3cccc([C@]4(O)CCN(C)C4=O)c3)cs2)n1)c1ccnn1C (single isomer, unassigned) [Example 126]",< 0.1 µM,0.1 to 0.5 µM,–
"COc1cccnc1Nc1nccc(-c2csc(-c3cccc([C@]4(O)CCN(C)C4=O)c3)n2)n1 [Example 161, (R)-3-Hydroxy-3-(3-(4-(2-((3-methoxypyridin-2-yl)amino)pyrimidin-4-yl)thiazol-2-yl)phenyl)-1-methylpyrrolidin-2-one]",> 0.501 µM,> 0.501 µM,–
CC(=O)N1CC(Nc2nccc(-c3csc(-c4cccc([C@]5(O)CCN(C)C5=O)c4)n3)n2)C1 [Example 172],0.1 to 0.5 µM,> 0.501 µM,–
CN1CC[C@@](O)(c2cccc(-c3nc(-c4ccnc(NC[C@H]5CCOC5)n4)cs3)c2)C1=O [Example 192],0.1 to 0.5 µM,> 0.501 µM,–
"CN1CC[C@@](O)(c2ccnc(-c3ccn(-c4ccnc(Nc5ccn(C)n5)n4)n3)c2)C1=O (racemic) [Example 30, (R,S)-3-Hydroxy-1-methyl-3-(2-(1-(2-((1-methyl-1H-pyrazol-3-yl)amino)pyrimidin-4-yl)-1H-pyrazol-3-yl)pyridin-4-yl)pyrrolidin-2-one]",< 0.1 µM,0.1 to 0.5 µM,–
CN1CC[C@@](O)(c2cccc(-c3nc(-c4ccnc(N[C@@H]5CCC[C@H]5O)n4)cs3)c2)C1=O [Example 216],0.1 to 0.5 µM,> 0.501 µM,–
"CN1C(=O)[C@@](O)(c2ccnc(-c3csc(-c4ccnc(Nc5ccn(C)n5)n4)n3)c2)C[C@@H]1C(F)(F)F (single isomer, unassigned) [Example 60]",0.1 to 0.5 µM,> 0.501 µM,–
"CN1CC[C@@](O)(c2cccc(-c3nc(-c4ccnc(Nc5cccnc5)n4)cs3)c2)C1=O [Example 68, (R)-3-hydroxy-1-methyl-3-(3-(4-(2-(pyridin-3-ylamino)pyrimidin-4-yl)thiazol-2-yl)phenyl)pyrrolidin-2-one]",> 0.501 µM,> 0.501 µM,–
"CN1CC[C@@](O)(c2cccc(-c3csc(-c4ccnc(Nc5cnn(CC6CC6)c5)n4)n3)c2)C1=O [Example 20, (R)-3-(3-(2-(2-((1-(cyclopropylmethyl)-1H-pyrazol-4-yl)amino)pyrimidin-4-yl)thiazol-4-yl)phenyl)-3-hydroxy-1-methylpyrrolidin-2-one]",0.1 to 0.5 µM,> 0.501 µM,–
"Cc1nocc1Nc1nccc(-c2csc(-c3cccc([C@]4(O)CCN(C)C4=O)c3)n2)n1 [Example 275, (R)-3-Hydroxy-1-methyl-3-(3-(4-(2-((3-methylisoxazol-4-yl)amino)pyrimidin-4-yl)thiazol-2-yl)phenyl)pyrrolidin-2-one]",< 0.1 µM,< 0.1 µM,–
CN1CC[C@@](O)(c2cccc(-c3nc(-c4ccnc(N[C@H]5CC[C@@H](C#N)CC5)n4)cs3)c2)C1=O [Example 243],< 0.1 µM,> 0.501 µM,–
"CN1CC[C@@](O)(c2cccc(-c3nc(-c4ccnc(Nc5cn(CC6CCC6)cn5)n4)cs3)c2)C1=O [Example 125, (R)-3-(3-(4-(2-((1-(cyclobutylmethyl)-1H-imidazol-4-yl)amino)pyrimidin-4-yl)thiazol-2-yl)phenyl)-3-hydroxy-1-methylpyrrolidin-2-one]",< 0.1 µM,> 0.501 µM,–
"CN1CC[C@@](O)(c2cccc(-c3nc(-c4ccnc(Nc5ccn(CC(F)F)n5)n4)cs3)c2)C1=O [Example 258, (R)-3-(3-(4-(2-((1-(2,2-Difluoroethyl)-1H-pyrazol-3-yl)amino)pyrimidin-4-yl)thiazol-2-yl)phenyl)-3-hydroxy-1-methylpyrrolidin-2-one]",< 0.1 µM,0.1 to 0.5 µM,–
"CN1CCC(O)(c2cncc(-c3csc(-c4ccnc(Nc5ccnn5C)n4)n3)c2)C1=O (single isomer, unassigned) [Example 46, (R)-3-Hydroxy-1-methyl-3-(5-(2-(2-((1-methyl-1H-pyrazol-5-yl)amino)pyrimidin-4-yl)thiazol-4-yl)pyridin-3-yl)pyrrolidin-2-one or (S)-3-hydroxy-1-methyl-3-(5-(2-(2-((1-methyl-1H-pyrazol-5-yl)amino)pyrimidin-4-yl)thiazol-4-yl)pyridin-3-yl)pyrrolidin-2-one]",< 0.1 µM,< 0.1 µM,–
"C[C@H](Nc1nccc(-c2nc(-c3cc([C@]4(O)CCN(C)C4=O)ccn3)cs2)n1)c1ccnn1C [Example 290, (R)-3-Hydroxy-1-methyl-3-(2-(2-(2-(((S)-1-(1-methyl-1H-pyrazol-5-yl)ethyl)amino)pyrimidin-4-yl)thiazol-4-yl)pyridin-4-yl)pyrrolidin-2-one]",< 0.1 µM,0.1 to 0.5 µM,–
"CN1CC[C@@](O)(c2cccc(-c3csc(-c4ccnc(Nc5cnn(C)c5)n4)n3)c2)C1=O [Example 79, (R)-3-hydroxy-1-methyl-3-(3-(2-(2-((1-methyl-1H-pyrazol-4-yl)amino)pyrimidin-4-yl)thiazol-4-yl)phenyl)pyrrolidin-2-one]",< 0.1 µM,> 0.501 µM,–
"CN1CC[C@](O)(c2cc(-c3csc(-c4ccnc(Nc5ccn(C)n5)n4)n3)ccc2F)C1=O (single isomer, unassigned) [Example 25]",0.1 to 0.5 µM,> 0.501 µM,–
"CN1CC[C@@](O)(c2cccc(-n3ccc(-c4ccnc(Nc5ccn(C)n5)n4)n3)c2)C1=O [Example 55, (R)-3-hydroxy-1-methyl-3-(3-(3-(2-((1-methyl-1H-pyrazol-3-yl)amino)pyrimidin-4-yl)-1H-pyrazol-1-yl)phenyl)pyrrolidin-2-one]",< 0.1 µM,0.1 to 0.5 µM,–
Cc1nnc(Nc2nccc(-c3csc(-c4cccc([C@]5(O)CCN(C)C5=O)c4)n3)n2)o1 [Example 175],0.1 to 0.5 µM,> 0.501 µM,–
(trans)-3-hydroxy-1-methyl-3-(3-(4-(2-((1-methyl-1H-pyrazol-3-yl)amino)pyrimidin-4-yl)thiazol-2-yl)phenyl)-5-(trifluoromethyl)pyrrolidin-2-one [Example 37],> 0.501 µM,–,> 0.501 µM
"Cc1nn(C(F)F)cc1Nc1nccc(-c2csc(-c3cccc([C@]4(O)CCN(C)C4=O)c3)n2)n1 [Example 140, (R)-3-(3-(4-(2-((1-(difluoromethyl)-3-methyl-1H-pyrazol-4-yl)amino)pyrimidin-4-yl)thiazol-2-yl)phenyl)-3-hydroxy-1-methylpyrrolidin-2-one]",< 0.1 µM,< 0.1 µM,–
"CN1CC[C@@](O)(c2cccc(-c3nc(-c4ccnc(NC5[C@@H]6COC[C@@H]56)n4)cs3)c2)C1=O (stereo partly drawn) [Example 115, (R)-3-(3-(4-(2-(((1R,5R)-3-oxabicyclo[3.1.0]hexan-6-yl)amino)pyrimidin-4-yl)thiazol-2-yl)phenyl)-3-hydroxy-1-methylpyrrolidin-2-one]",0.1 to 0.5 µM,> 0.501 µM,–
"CN1CC[C@@](O)(c2cccc(-c3nc(-c4ccnc(Nc5cn(C)nc5OC5CCC5)n4)cs3)c2)C1=O [Example 97, (R)-3-(3-(4-(2-((3-cyclobutoxy-1-methyl-1H-pyrazol-4-yl)amino)pyrimidin-4-yl)thiazol-2-yl)phenyl)-3-hydroxy-1-methylpyrrolidin-2-one]",< 0.1 µM,< 0.1 µM,–
CN1CC[C@@](O)(c2cccc(-c3nc(-c4ccnc(NCCCN5CCOCC5)n4)cs3)c2)C1=O [Example 246],> 0.501 µM,> 0.501 µM,–
"CN1CC[C@@](O)(c2ccnc(-c3csc(-c4ccnc(Nc5cnn(C)c5)n4)n3)c2)C1=O (single isomer, unassigned) [Example 151]",< 0.1 µM,< 0.1 µM,–
"CN1CC[C@@](O)(c2cccc(-c3nc(-c4ccnc(Nc5cnc6ccc(F)cn56)n4)cs3)c2)C1=O [Example 279, (R)-3-(3-(4-(2-((6-Fluoroimidazo[1,2-a]pyridin-3-yl)amino)pyrimidin-4-yl)thiazol-2-yl)phenyl)-3-hydroxy-1-methylpyrrolidin-2-one]",> 0.501 µM,> 0.501 µM,–
